Seven compounds from patent US12331121B2, “Efflux pump-cancer antigen multi-specific antibodies and compositions, reagents, kits and methods related thereto” (William Robert Arathoon Living Trust Dated August 29, 2016, priority 2019, dated 2025) can be followed below.

Read-outs that look alike come from different tables or passages of the source.

The subject of data set [1] is multidrug resistant N6ADR cells. As to the kind of experiment: N6ADR tumor volume in mice (Example 2, FIG. 9). The format is in vivo. The note with it: for effect on tumor volume with paclitaxel (chemosensitization): antibody dosed about 1-4 hrs prior to paclitaxel; for effect on tumor volume without paclitaxel: antibody on day 0, 4, 7, 11, no chemotherapeutic agent. How it is done:
N6ADR cells were injected into a cohort of 6 mice per test group prior to administration of the indicated antibodies. The antibodies were administered once palpable tumors reached a size of about 100-150 mm^3 (about 7 days after injection of tumor cells). Antibodies were administered on day 0, day 4, day 7, and day 11. Tumor volumes were measured and are plotted. Panel A: 15D3/MRK16 monoclonal anti-MDR1 antibody. Panel B: KT14/MRK16 monoclonal anti-CD47 antibody. Panel C: Co-administration of 15D3/MRK16 monoclonal anti-MDR1 antibody and KT14/MRK16 monoclonal anti-CD47 antibody. Panel D: KbisP1.1 antibody.
The indicated antibodies were administered with or without the chemotherapeutic agent paclitaxel. Antibody was dosed about 1-4 hrs prior to Paclitaxel.

For data set [2], the target named is T1, PDL1 (293T cells overexpressing PDL1) (Homo sapiens, UniProt Q9NZQ7).
T1 construct: expressed in transfected cells; host or cells: 293T
As to the kind of experiment: PDL1 binding using 293T cells overexpressing PDL1.

A further data set deals with NALM6 ADR cells. From the text:
Cells: NALM6 (ATCC) and NALM6 ADR (ATCC), B cell precursor lymphoblastic leukemia cell lines used in this study. NALM6 ADR is a multidrug resistant cell line derived from NALM6 cells.
Mice: Sixty-five 5-6-weeks-old female SCID-Beige mice (Charles River) were used in this study.
Inoculation-2×10^6 cells diluted in PBS:Matrigel (1:1) were subcutaneously injected using a 27G insulin syringe into fifty anesthetized 5-6-week-old female SCID-Beige mice under sterile conditions.
NALM6 ADR subcutaneous tumors: Mice were randomized into nine groups of five mice each—(i) Control isotype IgG1 15 mg/kg, (ii) Control isotype IgG1 15 mg/kg and 5 mg/kg of paclitaxel, (iii) Control isotype IgG1 15 mg/kg and 20 mg/kg of paclitaxel, (iv) BisP1.1 15 mg/kg, (v) BisP1.1 15 mg/kg and 5 mg/kg of paclitaxel, (vi) BisP1.1 15 mg/kg and 20 mg/kg of paclitaxel (vii) Valspodar 20 mg/kg (viii) Valspodar 20 mg/kg and 5 mg/kg of paclitaxel and (ix) Valspodar 20 mg/kg and […]. Antibody, Valspodar and paclitaxel were dosed intraperitoneally twice a week for four consecutive weeks. Antibody/valspodar were injected at least 4 hours prior to paclitaxel injection. Paclitaxel preparation: Since paclitaxel is poorly soluble, a master stock of 50 mg/ml was prepared in absolute ethanol:Kolliphor (1:1). Prior to injection the stock was diluted to recommended doses of 5 mg/kg or 20 mg/kg with PBS maintaining a ratio of (1:16).
Measurements: Tumor measurements were done thrice a week using a calibrated Vernier Caliper and tumor volume calculated as per the formula ½*L*S*S where L is the long axis and s is the short axis of the tumor. Body weights were recorded before treatment started and were continuously monitored throughout the study. Animal survival was evaluated from the first day of treatment until death. To avoid suffering, mice were euthanized when turning moribund according to the above-mentioned predefined criteria: rapid weight loss, loss of ability to ambulate, labored respiration, or inability to drink or feed.
Statistics: Tumor volume and body weights were compared between different experimental groups using exact one-way analysis of variance (ANOVA). Kaplan-Meier survival curves were compared between different treatment groups using the log-rank (Mantel-Cox) test. Statistical analyses were performed using Graph Pad Prism (GraphPad, San Diego, CA, USA) software. The level of significance was set at p<0.05 for all analyses.

Data set [3] has as its target MDR1 (293T cells overexpressing MDR1) (Homo sapiens, UniProt P08183).
Procedure: Binding specificity of the mAbs, Fab and Bispecific IgG1 was tested by FACS using 293T cell lines naturally expressing CD47, 293T naïve cells overexpressing human ABCB1 target, 293T naïve cells having ABCB1 knocked down using Lentiviral RNA vectors, CD47 knock out 293T cells and CD47 knock out 293T cells overexpressing human ABCB1. […] The cells were washed three times with FACS buffer (PBS containing 0.5% BSA). Alexa647 labeled goat anti-human antibody was added as a secondary antibody, and the samples were incubated on ice for another 1 hour. Samples were washed and analyzed using a BD FACS Canto (BD Biosciences).
FACS measurement for MDR1 binding was performed as described in Example 1.
The next data set has as its system N6/ADR cells. Description: Vincristine cytotoxicity assay. The data set is classed as cell-based. The following applies: Homo sapiens; Table 5; vincristine titrated with antibody at 100 μg/mL (2× final concentration); 72 hr. How it is done: Cytotoxicity Assays. The effect of antibodies on vincristine cytotoxicity was evaluated on N6/ADR, a doxorubicin-selected, B1-positive variant of the human acute lymphoblastic leukemia (ALL) cell line, NALM6. Cells were plated in 0.05 mL of Assay Media (RPMI-1640+10% FBS) at 5000 cells/well in white flat bottom 96-well tissue culture plates. Vincristine was prepared at 2× final assay concentration by serial dilution from 200 uM in assay media containing test antibodies or control antibodies at 100 μg/mL (2× final concentration), or valspodar, a small molecule B1 inhibitor at 7 uM (2× final concentration). An equivalent volume (0.05 mL) of the vincristine/antibody mixture was added to the N6/ADR cells in 96-well plates. The plates were then incubated at 37° C., in 5% CO2. After 72 hr plates were equilibrated to room temperature and cell viability assessed using Promega® CellTiter-Glo® Luminescent Cell Viability Assay according to the manufacturer's recommended protocol. Luminescence was measured on a Molecular Devices® FlexStation® 3 Multi-Mode Microplate Reader and data analyzed using GraphPad Prism 8.0 software.

A short description of data set [4]: Single dose cynomolgus monkey toxicity study. The note with it: post infusion; paclitaxel 2 mg/kg. The format is in vivo, cynomolgus monkeys (Macaca fascicularis).
Source text: Fifteen cynomolgus monkeys (Macaca fascicularis) were enrolled in a single dose study to evaluate KbisP1.1 toxicity.
For the next data set, the system named is NALM6 cells. Description: NALM6 subcutaneous tumors in SCID-Beige mice. The data set is classed as in vivo. The following applies: paclitaxel 5 mg/kg and 20 mg/kg. As for the experimental part: NALM6 subcutaneous tumors: Mice were randomized into three groups of five mice each—(i) Control vehicle, (ii) 5 mg/kg and (iii) 20 mg/kg of paclitaxel.
The next data set has as its system cynomolgus RBCs. Description: Binding to cynomolgus erythrocytes. The note with it: FIG. 22B; in contrast to anti-CD47 5F9.
The subject of data set [5] is human red blood cells (RBCs). Description: Binding to human erythrocytes. The note with it: FIG. 22A; in contrast to anti-CD47 5F9.

T1 sequence (Q9NZQ7 19-290): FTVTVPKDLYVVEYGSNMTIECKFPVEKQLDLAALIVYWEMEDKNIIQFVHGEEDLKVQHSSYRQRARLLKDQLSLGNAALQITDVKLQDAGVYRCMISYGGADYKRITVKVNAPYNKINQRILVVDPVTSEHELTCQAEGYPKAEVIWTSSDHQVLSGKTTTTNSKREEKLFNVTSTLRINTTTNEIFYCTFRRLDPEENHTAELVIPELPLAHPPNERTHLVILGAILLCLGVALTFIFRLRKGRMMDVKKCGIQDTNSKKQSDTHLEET

Take “15D3/MRK16: anti-MDR1 antibody with two 15D3 heavy chains and two MRK16 light chains”: in data set [1], the “effect on tumor volume with paclitaxel (chemosensitization)” value was “rendered the chemoresistant N6ADR cells sensitive to paclitaxel” and the “effect on tumor volume without paclitaxel” value is “no significant effect on tumor volume”.
As to atezolizumab, a half-maximal response in [2] (EC50) required 0.00029 µM.
With `C/C=C/C[C@@H](C)C(=O)[C@H]1C(=O)N[C@@H](C(C)C)C(=O)N(C)CC(=O)N(C)[C@@H](CC(C)C)C(=O)N[C@@H](C(C)C)C(=O)N(C)[C@@H](CC(C)C)C(=O)N[C@@H](C)C(=O)N[C@H](C)C(=O)N(C)[C@@H](CC(C)C)C(=O)N(C)[C@@H](CC(C)C)C(=O)N(C)[C@@H](C(C)C)C(=O)N1C` [valspodar, reference compound], the body weight result in the data set on NALM6 ADR cells (valspodar result in combination with paclitaxel 20 mg/kg) is “significant reduction in body weight”.
As for necitumumab, the “binding to MDR1 by FACS” value in data set [3] is recorded as “did not show significant binding”.
For the compound `CC[C@]1(O)C[C@H]2CN(CCc3c([nH]c4ccccc34)[C@@](C(=O)OC)(c3cc4c(cc3OC)N(C=O)[C@H]3[C@@](O)(C(=O)OC)[C@H](OC(C)=O)[C@]5(CC)C=CCN6CC[C@]43[C@@H]65)C2)C1` [Vincristine alone, vincristine], half-maximal inhibition in the data set on N6/ADR cells (IC50) was put at 0.543 µM.
As to `CC(=O)O[C@H]1C(=O)[C@@]2(C)[C@H]([C@H](OC(=O)c3ccccc3)[C@]3(O)C[C@H](OC(=O)[C@H](O)[C@@H](NC(=O)c4ccccc4)c4ccccc4)C(C)=C1C3(C)C)[C@]1(OC(C)=O)CO[C@@H]1C[C@@H]2O` [paclitaxel, reference compound], the tumor growth inhibition entry with NALM6 ADR cells (paclitaxel 5 mg/kg) was “significantly less tumor growth inhibition”; with NALM6 ADR cells (paclitaxel 20 mg/kg), “modest inhibition”; in the data set on NALM6 cells, “significant (p<0.0001) tumor growth inhibition”. For the same compound, the “erythema at the infusion site” value in [4] was “minimal erythema”.
Turning to “5F9/MRK16: anti-CD47 antibody with two 5F9 heavy chains and two MRK16 light chains”, in data set [1], the “effect on tumor volume with paclitaxel (chemosensitization)” value is recorded as “not observed” and the “effect on tumor volume without paclitaxel” value was “no significant effect on tumor volume”. In addition, the “binding to cynomolgus erythrocytes” value in the data set on cynomolgus RBCs is reported as “does not significantly bind”. In addition, the “binding to human erythrocytes” value in [5] was “does not significantly bind”.
